Counter-ions that a name gives are not always drawn.
Columns and labels:
Swiss-Webster mice = experiment: Locomotor stimulant and depressant effects in mice; conditions: i.p.
Description: Male Swiss-Webster mice (HSD ND4, Harlan Sprague Dawley, Houston, Tex.) aged 2–3 months were used in these studies. Each dose group consisted of 8 mice. The mice were housed 2 to 4 per cage in 30.4×22.9×15.2 cm clear polycarbonate cages with food and water available ad libitum for at least one week prior to locomotor activity testing. The colony was maintained at 23±1° C., on a normal light-dark cycle beginning at 0700 hr. All testing took place during the light portion of the light-dark cycle.
Horizontal (forward movement) locomotor activity was measured using a standardized, optical activity monitoring system [Model KXYZCM (16), Omnitech Electronics, Columbus, Ohio]. Activity was monitored in forty 40.5×40.5×30.5 cm clear acrylic chambers that where housed in sets of two within larger sound-attenuating chambers. A panel of 16 infrared beams and corresponding photodetectors were spaced 2 cm apart along the sides and 2.4 cm above the floor of each activity chamber. A 7.5-W incandescent light above each chamber provided dim illumination via a rheostat set to 20% of full scale. Fans provided an 80-dB ambient noise level within the chamber.
Triprolidine HCl was obtained from Research Biochemicals International, (Natick, Mass.).
Locomotor stimulant effects. […] (+)-Amphetamine was used as a positive control. The total horizontal distance traversed (cm) was recorded at 10 minute intervals for a 2-hour session. Separate groups of 8 mice were assigned to each dose or saline group, and dose-effect testing continued for each compound until maximal stimulant or depressant effects could be estimated. A separate control group was tested along with each compound.
Using TableCurve 2D v2.03 (Jandel Scientific), the mean average total distance traversed (cm/10 min) for that period was fit to a 3-parameter logistic peak function of log10 dose (with the constant set to the mean of the saline group), and the maximum effect estimated from the resulting curve. The […] (dose producing ½ maximal stimulant activity) was estimated from a linear regression against log10 dose of the ascending portion of the dose-effect curve. The stimulant efficacy was the peak effect of the compound (cm/10 min) as estimated from the logistic peak function, minus the mean control distance traveled (cm/10 min), and was expressed for each stimulant compound as a ratio to the stimulant efficacy determined for (+)-amphetamine.
The mean average total distance traversed (cm/10 min) for that period were fit to a linear function of log10 dose of the descending portion of the dose-effect curve. […] Efficacy was the ratio of maximal depressant effect to maximum possible depression for each compound (mean average total distance of the control group minus the lowest mean total distance, expressed as a ratio to the control group total distance).
Statistical analysis. Time course data for each compound were considered in 2-way analyses of variance with dose as a between-group and time as a within-group factor. The dose-effect data were considered in 1-way analyses of variance, and planned individual comparisons were conduced between each dose and the saline control group. Interaction studies were considered in 2-way analyses of variance, with Pretreatment and Test dose as the factors.

[1] = test system: New Zealand white rabbits; experiment: Intraocular pressure (IOP) after topical application to the rabbit eye; format: in vivo; conditions: for IOP: mean ± S.E.
Description: (§1) These diastereomers were administered topically as either 1% or 2% solutions in buffered saline. Pupillary diameter and IOP were measured in all animals over a six hour time period during the day to minimize diurnal variations in IOP and pupil diameter.
(§2) The experiments were performed on adult male New Zealand white rabbits weighing 3.0–6.0 kg. All rabbits were caged individually and maintained on a 12 hr/12 hr light/dark schedule with free access to food and water. All animal procedures were in conformity with the ARVO Resolution on the Use and Care of Animals in Research. All treated rabbits had served as controls by having received a saline treatment on a different day.
(§3) Only one eye received drug treatment. The contralateral eye served as a control. Saline (or PBS) and drug treated rabbits were treated and observed simultaneously. A single dose was given at time zero and IOP and pupil diameter measured at −1.0, −0.5, 0.5, 1, 3 and 5 hrs post-treatment.
IOP measurements were recorded with an Alcon Applanation Pneumotonograph (Surgical Products Division, Alcon Laboratories, Inc., Ft. Worth, Tex.) in rabbits placed in Lucite restraining cages. Initial topical application of a two drop 0.5% proparacaine HCl (Ophthetic®, Allergan Pharmaceuticals, Inc.) was performed on each rabbit.
(§4) Mean and Standard Error values were used to construct time-response and dose-response curves for the treated and contralateral eye of research rabbits. The data were analyzed statistically by an analysis of variance and a Bonferoni's test for significance. P<0.05 was the accepted level of significance.

[2] = test system: New Zealand white rabbits; experiment: Pupil diameter / mydriasis after topical application to the rabbit eye; format: in vivo; parameters: key to Mydriatic Responses, UNTREATED EYE: 0 = No change; + = 0–2 mm change; ++ = 2–4 mm change; conditions: for Pupil Diameter: mean ± S.E.
Description: as §1, §2, §3
Pupil diameter was measured visually at the point of the greatest horizontal diameter with a transparent millimeter ruler. All measurements were made under the identical ambient lighting conditions.
as §4

[3] = 1% topical, drug treated eye (T), 0.5 hr
[4] = 1% topical, drug treated eye (T), 1 hr
[5] = 1% topical, drug treated eye (T), 3 hr
[6] = 1% topical, drug treated eye (T), 5 hr
[7] = 1% topical, drug treated eye (T), −0.5 hr (pre-treatment)
[8] = 1% topical, drug treated eye (T), −1 hr (pre-treatment)
[9] = 1% topical, untreated contralateral eye (U), 0.5 hr
[10] = 1% topical, untreated contralateral eye (U), 1 hr
[11] = 1% topical, untreated contralateral eye (U), 3 hr
[12] = 1% topical, untreated contralateral eye (U), 5 hr
[13] = 1% topical, untreated contralateral eye (U), −0.5 hr (pre-treatment)
[14] = 1% topical, untreated contralateral eye (U), −1 hr (pre-treatment)
[15] = 2% topical, drug treated eye (T), 0.5 hr
[16] = 2% topical, drug treated eye (T), 1 hr
[17] = 2% topical, drug treated eye (T), 3 hr
[18] = 2% topical, drug treated eye (T), 5 hr
[19] = 2% topical, drug treated eye (T), −0.5 hr (pre-treatment)
[20] = 2% topical, drug treated eye (T), −1 hr (pre-treatment)
[21] = 2% topical, untreated contralateral eye (U), 0.5 hr
[22] = 2% topical, untreated contralateral eye (U), 1 hr
[23] = 2% topical, untreated contralateral eye (U), 3 hr
[24] = 2% topical, untreated contralateral eye (U), 5 hr
[25] = 2% topical, untreated contralateral eye (U), −0.5 hr (pre-treatment)
[26] = 2% topical, untreated contralateral eye (U), −1 hr (pre-treatment)

CC(N)Cc1ccccc1 (single isomer, unassigned; (+)) [(+)-amphetamine, (+)-Amphetamine]
locomotor stimulant effects, time course (result in words) (Swiss-Webster mice): dose- and time-dependent increase in the distance traversed within 10 minutes following injection

Mephentermine Hemisulfate Salt [reference compound]
IOP [1, 3]: 24 ± 1.0 mmHg
IOP [1, 4]: 24 ± 0.7 mmHg
IOP [1, 5]: 22 ± 0.9 mmHg
IOP [1, 6]: 18 ± 1.6 mmHg
IOP [1, 7]: 18 ± 1.8 mmHg
IOP [1, 8]: 19 ± 1.7 mmHg
IOP [1, 9]: 20 ± 2.1 mmHg
IOP [1, 10]: 17 ± 1.6 mmHg
IOP [1, 11]: 20 ± 1.4 mmHg
IOP [1, 12]: 17 ± 1.5 mmHg
IOP [1, 13]: 17 ± 1.0 mmHg
IOP [1, 14]: 17 ± 1.1 mmHg
IOP [1, 15]: 23 ± 2.2 mmHg
IOP [1, 16]: 23 ± 2.2 mmHg
IOP [1, 17]: 21 ± 2.3 mmHg
IOP [1, 18]: 23 ± 1.5 mmHg
IOP [1, 19]: 19 ± 2.0 mmHg
IOP [1, 20]: 21 ± 2.3 mmHg
IOP [1, 21]: 18 ± 1.6 mmHg
IOP [1, 22]: 16 ± 1.0 mmHg
IOP [1, 23]: 18 ± 0.8 mmHg
IOP [1, 24]: 20 ± 1.7 mmHg
IOP [1, 25]: 17 ± 2.1 mmHg
IOP [1, 26]: 18 ± 2.2 mmHg
Mydriatic Responses, TREATED EYE ([2]; 1% topical): ++ (++ = 2–4 mm change)
Mydriatic Responses, UNTREATED EYE ([2]; 1% topical): 0
Pupil Diameter [2, 3]: 10 ± 0.2 mm
Pupil Diameter [2, 4]: 10 ± 0.2 mm
Pupil Diameter [2, 5]: 10 ± 0.2 mm
Pupil Diameter [2, 6]: 10 ± 0.2 mm
Pupil Diameter [2, 7]: 7 ± 0.2 mm
Pupil Diameter [2, 8]: 7 ± 0.2 mm
Pupil Diameter [2, 9]: 7 ± 0.2 mm
Pupil Diameter [2, 10]: 7 ± 0.2 mm
Pupil Diameter [2, 11]: 7 ± 0.2 mm
Pupil Diameter [2, 12]: 7 ± 0.2 mm
Pupil Diameter [2, 13]: 7 ± 0.2 mm
Pupil Diameter [2, 14]: 7 ± 0.2 mm
Mydriatic Responses, TREATED EYE ([2]; 2% topical): + (+ = 0–2 mm change)
Mydriatic Responses, UNTREATED EYE ([2]; 2% topical): 0
Pupil Diameter [2, 15]: 7 ± 0.7 mm
Pupil Diameter [2, 16]: 8 ± 0.7 mm
Pupil Diameter [2, 17]: 6 ± 0.4 mm
Pupil Diameter [2, 18]: 6 ± 0.4 mm
Pupil Diameter [2, 19]: 6 ± 0.3 mm
Pupil Diameter [2, 20]: 6 ± 0.3 mm
Pupil Diameter [2, 21]: 6 ± 0.3 mm
Pupil Diameter [2, 22]: 6 ± 0.3 mm
Pupil Diameter [2, 23]: 6 ± 0.3 mm
Pupil Diameter [2, 24]: 6 ± 0.3 mm
Pupil Diameter [2, 25]: 6 ± 0.4 mm
Pupil Diameter [2, 26]: 6 ± 0.4 mm

C[C@H](N)[C@H](O)c1cccc(O)c1 [Metaraminol Bitartrate Salt, USP, metaraminol bitartrate salt, reference compound]
effect on IOP (result in words) ([1]; 1% or 2% topical, rabbit): accompanying increase in IOP
IOP [1, 3]: 25 ± 1.2 mmHg
IOP [1, 4]: 24 ± 1.3 mmHg
IOP [1, 5]: 21 ± 2.8 mmHg
IOP [1, 6]: 21 ± 2.7 mmHg
IOP [1, 7]: 19 ± 1.3 mmHg
IOP [1, 8]: 21 ± 2.3 mmHg
IOP [1, 9]: 18 ± 1.7 mmHg
IOP [1, 10]: 18 ± 1.0 mmHg
IOP [1, 11]: 19 ± 1.4 mmHg
IOP [1, 12]: 17 ± 0.8 mmHg
IOP [1, 13]: 16 ± 1.1 mmHg
IOP [1, 14]: 18 ± 1.4 mmHg
IOP [1, 15]: 15 ± 1.1 mmHg
IOP [1, 16]: 16 ± 3.6 mmHg
IOP [1, 17]: 14 ± 2.0 mmHg
IOP [1, 18]: 13 ± 0.8 mmHg
IOP [1, 19]: 14 ± 0.9 mmHg
IOP [1, 20]: 15 ± 0.7 mmHg
IOP [1, 21]: 19 ± 1.1 mmHg
IOP [1, 22]: 18 ± 0.8 mmHg
IOP [1, 23]: 19 ± 1.1 mmHg
IOP [1, 24]: 21 ± 1.6 mmHg
IOP [1, 25]: 15 ± 0.7 mmHg
IOP [1, 26]: 17 ± 1.2 mmHg
mydriasis / pupil diameter (result in words) ([2]; 1% or 2% topical, rabbit): produced mydriasis
Mydriatic Responses, TREATED EYE ([2]; 1% topical): ++ (++ = 2–4 mm change)
Mydriatic Responses, UNTREATED EYE ([2]; 1% topical): 0
Pupil Diameter [2, 3]: 9 ± 0.5 mm
Pupil Diameter [2, 4]: 9 ± 0.5 mm
Pupil Diameter [2, 5]: 9 ± 0.2 mm
Pupil Diameter [2, 6]: 9 ± 0.5 mm
Pupil Diameter [2, 7]: 7 ± 0.5 mm
Pupil Diameter [2, 8]: 7 ± 0.5 mm
Pupil Diameter [2, 9]: 7 ± 0.5 mm
Pupil Diameter [2, 10]: 7 ± 0.5 mm
Pupil Diameter [2, 11]: 7 ± 0.5 mm
Pupil Diameter [2, 12]: 7 ± 0.5 mm
Pupil Diameter [2, 13]: 7 ± 0.5 mm
Pupil Diameter [2, 14]: 7 ± 0.5 mm
Pupil Diameter [2, 15]: 10 ± 0.2 mm
Pupil Diameter [2, 16]: 10 ± 0.2 mm
Pupil Diameter [2, 17]: 10 ± 0.2 mm
Pupil Diameter [2, 18]: 10 ± 0.2 mm
Pupil Diameter [2, 19]: 5 ± 0.2 mm
Pupil Diameter [2, 20]: 5 ± 0.2 mm
Pupil Diameter [2, 21]: 10 ± 0.2 mm
Pupil Diameter [2, 22]: 10 ± 0.2 mm
Pupil Diameter [2, 23]: 10 ± 0.2 mm
Pupil Diameter [2, 24]: 10 ± 0.2 mm
Pupil Diameter [2, 25]: 5 ± 0.2 mm
Pupil Diameter [2, 26]: 5 ± 0.2 mm

Reference: patent US7232837B2, “Stereoisomers with high affinity for adrenergic receptors” (McNeil-PPC, Inc., priority 1999, dated 2007)
